Test results published in the NIST ThermoML archive (doi:10.1021/je201107a).
± gives the expanded uncertainty stated by the source.

Experiments:
[1] = cn = amount concentration of the nth substance listed, in mol/dm3; conditions: 298.15 K, Ring tensiometer
[2] = mn = molality of the nth substance listed, in mol/kg; conditions: 298.15 K, Ring tensiometer

CCCCCCCCCC[N+](C)(C)C.[Br-] [N,N,N-trimethyl-1-decanaminium bromide] + O
[1]
Conditions | surface tension liquid-gas [mN/m]
c1 = 0.0118 | 54.43 ± 0.71
c1 = 0.0211 | 48.37 ± 0.64
c1 = 0.0286 | 45.75 ± 0.61
c1 = 0.0348 | 42.87 ± 0.58
c1 = 0.04 | 40.18 ± 0.55
c1 = 0.0444 | 37.98 ± 0.52
c1 = 0.0464 | 37.19 ± 0.51
c1 = 0.0483 | 36.21 ± 0.5
c1 = 0.05 | 36.15 ± 0.5
c1 = 0.0516 | 36.47 ± 0.5
c1 = 0.0531 | 35.98 ± 0.5
c1 = 0.0545 | 35.88 ± 0.49
c1 = 0.0559 | 36.19 ± 0.5
c1 = 0.0571 | 36.31 ± 0.5

CCCCCCCCCCCC[N+](C)(C)C.[Br-] [dodecyltrimethylammonium bromide] + O
[2]
Conditions | surface tension liquid-gas [mN/m]
m1 = 0.0005 | 55.13 ± 0.72
m1 = 0.00099 | 55.56 ± 0.72
m1 = 0.00148 | 53.67 ± 0.7
m1 = 0.00196 | 53.93 ± 0.7
m1 = 0.00244 | 53.53 ± 0.7
m1 = 0.00291 | 52.63 ± 0.69
m1 = 0.00338 | 52.13 ± 0.68
m1 = 0.00476 | 49.16 ± 0.65
m1 = 0.00654 | 45.2 ± 0.6
m1 = 0.00826 | 42.32 ± 0.57
m1 = 0.00991 | 39.41 ± 0.54
m1 = 0.0115 | 36.77 ± 0.51
m1 = 0.013 | 34.09 ± 0.47
m1 = 0.0138 | 34.98 ± 0.49
m1 = 0.0145 | 37.44 ± 0.51
m1 = 0.0153 | 37.98 ± 0.52
m1 = 0.016 | 38.33 ± 0.52
m1 = 0.0167 | 38.47 ± 0.52
m1 = 0.0177 | 38.69 ± 0.53
m1 = 0.0184 | 38.46 ± 0.52

CCCCCCCCCCCC[N+](C)(C)[O-] [Dodecyldimethylamine oxide] + O
[2]
Conditions | surface tension liquid-gas [mN/m]
m1 = 0.00025 | 43.18 ± 0.58
m1 = 0.0005 | 39.98 ± 0.54
m1 = 0.00074 | 39.2 ± 0.53
m1 = 0.00099 | 36.87 ± 0.51
m1 = 0.00123 | 35.11 ± 0.49
m1 = 0.00148 | 33.73 ± 0.47
m1 = 0.00172 | 33.19 ± 0.46
m1 = 0.00196 | 33.32 ± 0.46
m1 = 0.00244 | 34.06 ± 0.48
m1 = 0.00291 | 34.05 ± 0.47
m1 = 0.00338 | 34.22 ± 0.48
m1 = 0.00385 | 34.14 ± 0.47
m1 = 0.00431 | 34.17 ± 0.47

CCCCCCCCCCCCCC[N+](C)(C)C.[Br-] [tetradecyltrimethylammonium bromide] + O
[2]
Conditions | surface tension liquid-gas [mN/m]
m1 = 0.0005 | 53.96 ± 0.7
m1 = 0.00099 | 52.31 ± 0.69
m1 = 0.00148 | 46.35 ± 0.62
m1 = 0.00196 | 41.65 ± 0.56
m1 = 0.00244 | 39 ± 0.53
m1 = 0.00291 | 36.35 ± 0.5
m1 = 0.00338 | 34.05 ± 0.47
m1 = 0.00385 | 33.87 ± 0.47
m1 = 0.00431 | 35.02 ± 0.49
m1 = 0.00476 | 36.24 ± 0.5
m1 = 0.00521 | 35.86 ± 0.49
m1 = 0.00566 | 36.33 ± 0.5
m1 = 0.0061 | 36.74 ± 0.5
m1 = 0.00654 | 36.6 ± 0.5
m1 = 0.00698 | 36.81 ± 0.51
